Square brackets hold non-standard residues; d marks the D form. Side chains are listed from the residue outwards. Peptide text beside a SMILES is read from it. * marks the point of attachment. Piperidinyl(4-(1-Pro-OH)) = O=C(O)[C@@H]1CCCN1C1CCN(*)CC1; d(hArg) = N=C(N)NCCCC[C@@H](N)C(=O)O; dOrn = NCCC[C@@H](N)C(=O)O
Columns and labels:
[1] = target: T1, mouse kappa opioid receptor (mKOR) (Mus musculus, UniProt P33534); experiment: cell-based; settings: for Emax: read-out: mKOR Efficacy(%)
T1 construct: Stimulation of Endogenous Mouse Kappa-Opioid Receptor in R1.G1 Cells; host or cells: R1.G1 mouse thymoma cells
T1 sequence (P33534 whole entry): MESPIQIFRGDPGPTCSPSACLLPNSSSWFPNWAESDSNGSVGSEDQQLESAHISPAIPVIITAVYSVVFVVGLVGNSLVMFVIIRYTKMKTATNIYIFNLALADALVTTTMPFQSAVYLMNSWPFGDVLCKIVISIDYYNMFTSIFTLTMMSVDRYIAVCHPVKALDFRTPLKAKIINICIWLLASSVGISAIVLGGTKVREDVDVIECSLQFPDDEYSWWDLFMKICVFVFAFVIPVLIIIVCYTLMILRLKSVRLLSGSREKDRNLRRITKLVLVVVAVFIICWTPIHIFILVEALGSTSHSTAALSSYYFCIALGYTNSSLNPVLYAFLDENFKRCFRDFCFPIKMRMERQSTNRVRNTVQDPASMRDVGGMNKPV

[2] = target: T2, human kappa opioid receptor (hKOR) (Homo sapiens, UniProt P41145); experiment: cell-based; settings: for Emax: HEK293, read-out: hKOR Efficacy(%)
T2 construct: expressed in transfected cells; host or cells: HEK-293 cells, transient transfection with Fugene6
T2 sequence (P41145 whole entry): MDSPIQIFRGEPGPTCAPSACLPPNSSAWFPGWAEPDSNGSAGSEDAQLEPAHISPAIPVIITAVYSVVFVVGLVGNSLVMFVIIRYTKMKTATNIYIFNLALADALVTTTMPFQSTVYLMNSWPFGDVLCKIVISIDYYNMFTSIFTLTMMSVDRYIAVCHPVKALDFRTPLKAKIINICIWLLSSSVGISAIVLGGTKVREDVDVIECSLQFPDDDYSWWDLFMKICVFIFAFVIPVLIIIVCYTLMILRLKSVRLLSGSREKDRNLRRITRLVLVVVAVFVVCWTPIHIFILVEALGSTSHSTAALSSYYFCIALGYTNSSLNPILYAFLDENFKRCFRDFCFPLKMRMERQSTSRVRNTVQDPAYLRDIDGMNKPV

[3] = test system: ICR mice; experiment: Acetic acid-induced writhing assay in mice; assay type: in vivo, mouse; settings: iv; for ED50 (mg/kg, iv, 15 min post-dose): mice
[4] = target: T3, human mu opioid receptor (Homo sapiens, UniProt P35372); experiment: Similar assay for potency on the human mu opioid receptor; assay type: cell-based
T3 construct: expressed in transfected cells
T3 sequence (P35372 whole entry): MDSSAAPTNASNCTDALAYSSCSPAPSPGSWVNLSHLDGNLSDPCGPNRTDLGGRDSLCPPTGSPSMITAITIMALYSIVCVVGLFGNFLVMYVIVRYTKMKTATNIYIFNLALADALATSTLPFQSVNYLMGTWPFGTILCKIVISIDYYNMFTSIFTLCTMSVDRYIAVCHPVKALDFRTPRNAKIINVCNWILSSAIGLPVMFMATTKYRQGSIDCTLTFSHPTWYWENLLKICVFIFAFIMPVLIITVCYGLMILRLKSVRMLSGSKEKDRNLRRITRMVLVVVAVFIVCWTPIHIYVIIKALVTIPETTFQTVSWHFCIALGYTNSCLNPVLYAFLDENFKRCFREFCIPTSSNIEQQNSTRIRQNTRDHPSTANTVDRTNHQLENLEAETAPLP
Protocol: Synthetic peptide amides of the invention were tested in a similar assay for potency on the human mu opioid receptor.
The synthetic peptide amide (53) was tested in a similar assay for potency on the human mu opioid receptor.

## CC(C)C[C@@H](NC(=O)[C@@H](Cc1ccccc1)NC(=O)[C@H](N)Cc1ccccc1)C(=O)N[C@H](CCCCN)C(=O)N1CCC(N)(C(=O)O)CC1 [Compound (2), D-Phe-D-Phe-D-Leu-D-Lys-[ω(4-aminopiperidine-4-carboxylic acid)]-OH]
[1]
  EC50: 0.048 nM
  Emax: 96%
[2]
  EC50: 0.16 nM
  Emax: 99%
[3]
  ED50 (mg/kg, iv, 15 min post-dose): 0.07 mg/kg
[3]; 240 min post-ED90
  % MPE (240 min post-ED90): 81 ± 4%
[3]; 300 min post-ED90
  % MPE (300 min post-ED90): 84 ± 4%

## CC(C)C[C@@H](NC(=O)[C@@H](Cc1ccccc1)NC(=O)[C@H](N)Cc1ccccc1)C(=O)N[C@H](CCCCNC(=N)N)C(=O)N1CCC(N2CCC[C@H]2C(=O)O)CC1 [Compound (5), D-Phe-D-Phe-D-Leu-D-Har-[N-(4-piperidinyl)-L-proline]-OH] (H-[dF][dF][dL][d(hArg)]-{Piperidinyl(4-(1-Pro-OH))})
[1]
  EC50: 0.034 nM
  Emax: 89%
[2]
  EC50: 0.17 nM
  Emax: 98%
[3]
  ED50 (mg/kg, iv, 15 min post-dose): 0.01 mg/kg
[3]; 180 min post-ED90
  % MPE (180 min post-ED90): 54 ± 10%

## CC(C)C[C@@H](NC(=O)[C@@H](Cc1ccccc1)NC(=O)[C@H](N)Cc1ccccc1)C(=O)N[C@H](CCCN)C(=O)N1CCCN(C(=N)N)CC1 [Compound (53), D-Phe-D-Phe-D-Leu-D-Orn-[4-amidinohomopiperazine amide]]
[1]
  EC50: 0.03 nM
[2]
  EC50: 0.15 nM
  Emax: 103%
[4]
  EC50: ≥ 1000 nM

## CC(C)C[C@@H](NC(=O)[C@@H](Cc1ccccc1)NC(=O)[C@H](N)Cc1ccccc1)C(=O)N[C@H](CCCNC(C)C)C(=O)N1CCC(N)(C(=O)O)CC1 [Compound (58), D-Phe-D-Phe-D-Leu-(δ-iPr)D-Orn-[ω(4-aminopiperidine-4-carboxylic acid)]-OH]
[1]
  EC50: 0.193 nM
  Emax: 92%
[2]
  EC50: 0.12 nM

## CC(C)C[C@@H](NC(=O)[C@@H](Cc1ccccc1)NC(=O)[C@H](N)Cc1ccccc1)C(=O)N[C@H](CCCNC(C)C)C(=O)N1CCCN(C(=N)N)CC1 [Compound (59), D-Phe-D-Phe-D-Leu-(δ-iPr)D-Orn-[4-amidinohomopiperazine amide]]
[1]
  EC50: 0.081 nM
  Emax: 97%
[2]
  EC50: 0.08 nM
  Emax: 100%

## CNCCC[C@@H](NC(=O)[C@@H](CC(C)C)NC(=O)[C@@H](Cc1ccccc1)NC(=O)[C@H](N)Cc1ccccc1)C(=O)N1CCCNCC1 [Compound (60), D-Phe-D-Phe-D-Leu-(δ-Me)D-Orn-[homopiperazine amide]]
[1]
  EC50: 0.045 nM
  Emax: 95%
[2]
  EC50: 0.09 nM
  Emax: 106%

## CC(C)C[C@@H](NC(=O)[C@@H](Cc1ccccc1)NC(=O)[C@H](N)Cc1ccccc1)C(=O)N[C@H](CCCNC(C)C)C(=O)N1CCCNCC1 [Compound (61), D-Phe-D-Phe-D-Leu-(δ-iPr)D-Orn-[homopiperazine amide]]
[1]
  EC50: 0.033 nM
  Emax: 96%
[2]
  EC50: 0.07 nM
  Emax: 98%

## CC(C)C[C@@H](NC(=O)[C@@H](Cc1ccccc1)NC(=O)[C@H](N)Cc1ccccc1)C(=O)N[C@H](CCCCN)C(=O)NCC1OCCO1 [Compound (62)]
[1]
  EC50: 0.147 nM
  Emax: 85%
[2]
  EC50: 0.021 nM
  Emax: 98%

## CC(C)C[C@@H](NC(=O)[C@@H](Cc1ccccc1)NC(=O)[C@H](N)Cc1ccccc1)C(=O)N[C@H](CCCCN)C(=O)N1CCN(c2ncccn2)CC1 [Compound (63), D-Phe-D-Phe-D-Leu-D-Lys-[2-(piperazin-1-yl)pyrimidine amide]]
[1]
  EC50: 0.12 nM
  Emax: 78%
[2]
  EC50: 0.0073 nM
  Emax: 98%

## CC(C)C[C@@H](NC(=O)[C@@H](Cc1ccccc1)NC(=O)[C@H](N)Cc1ccccc1)C(=O)N[C@H](CCCCN)C(=O)N1CCN(c2cnccn2)CC1 [Compound (64), D-Phe-D-Phe-D-Leu-D-Lys-[2-(piperazin-1-yl)pyrazine amide]]
[1]
  Emax: 85%
[2]
  EC50: 0.0293 nM
  Emax: 100%

## CC(C)C[C@@H](NC(=O)[C@@H](Cc1ccccc1)NC(=O)[C@H](N)Cc1ccccc1)C(=O)N[C@H](CCCCN)C(=O)N1CCN(c2ccccn2)CC1 [Compound (65), D-Phe-D-Phe-D-Leu-D-Lys-[1-(pyridin-2-yl)piperazine amide]]
[1]
  EC50: 0.0471 nM
  Emax: 89%
[2]
  EC50: 0.0059 nM
  Emax: 100%

## CC(C)C[C@@H](NC(=O)[C@@H](Cc1ccccc1)NC(=O)[C@H](N)Cc1ccccc1)C(=O)N[C@H](CCCCN)C(=O)N1CCN(c2nccs2)CC1 [Compound (66), D-Phe-D-Phe-D-Leu-D-Lys-[2-(piperazin-1-yl)thiazole amide]]
[1]
  EC50: 0.084 nM
  Emax: 85%
[2]
  EC50: 0.031 nM
  Emax: 92%

## CC(C)C[C@@H](NC(=O)[C@@H](Cc1ccccc1)NC(=O)[C@H](N)Cc1ccccc1)C(=O)N[C@H](CCCCN)C(=O)N1CCN(S(=O)(=O)N(C)C)CC1 [Compound (67), D-Phe-D-Phe-D-Leu-D-Lys-[N,N-dimethylpiperazine-1-sulfonamide amide]]
[1]
  EC50: 0.193 nM
  Emax: 86%
[2]
  EC50: 0.0194 nM
  Emax: 101%

## CC(C)C[C@@H](NC(=O)[C@@H](Cc1ccccc1)NC(=O)[C@H](N)Cc1ccccc1)C(=O)N[C@H](CCCCN)C(=O)N1CCN(S(C)(=O)=O)CC1 [Compound (68), D-Phe-D-Phe-D-Leu-D-Lys-[1-(methylsulfonyl)piperazine amide]]
[1]
  EC50: 0.246 nM
  Emax: 82%
[2]
  EC50: 0.0073 nM
  Emax: 100%

## CC(C)C[C@@H](NC(=O)[C@@H](Cc1ccccc1)NC(=O)[C@H](N)Cc1ccccc1)C(=O)N[C@H](CCCCN)C(=O)N1CCN(S(=O)(=O)c2ccccc2)CC1 [Compound (69), D-Phe-D-Phe-D-Leu-D-Lys-[1-(phenylsulfonyl)piperazine amide]]
[1]
  EC50: 0.53 nM
  Emax: 87%
[2]
  EC50: 0.011 nM
  Emax: 101%

## CC(C)C[C@@H](NC(=O)[C@@H](Cc1ccccc1)NC(=O)[C@H](N)Cc1ccccc1)C(=O)N[C@H](CCCCN)C(=O)N1CCN(C(=O)c2ccccc2)CC1 [Compound (70), D-Phe-D-Phe-D-Leu-D-Lys-[phenyl(piperazin-1-yl)methanone amide]]
[1]
  EC50: 0.348 nM
  Emax: 92%
[2]
  EC50: 0.012 nM
  Emax: 94%

## CC(C)C[C@@H](NC(=O)[C@@H](Cc1ccccc1)NC(=O)[C@H](N)Cc1ccccc1)C(=O)N[C@H](CCCCN)C(=O)N1CCS(=O)(=O)CC1 [Compound (71), D-Phe-D-Phe-D-Leu-D-Lys-[thiolmorpholine-1,1-dioxide amide]]
[1]
  EC50: 0.192 nM
  Emax: 89%
[2]
  EC50: 0.0306 nM
  Emax: 103%

## CC(C)C[C@@H](NC(=O)[C@@H](Cc1ccccc1)NC(=O)[C@H](N)Cc1ccccc1)C(=O)N[C@H](CCCCN)C(=O)NCc1ccc(C(F)(F)F)nc1 [Compound (72), D-Phe-D-Phe-D-Leu-D-Lys-[6-trifluoromethyl-3-aminomethylpyridine amide]]
[1]
  EC50: 0.485 nM
  Emax: 85%
[2]
  EC50: 0.0667 nM
  Emax: 95%

## CC(C)C[C@@H](NC(=O)[C@@H](Cc1ccccc1)NC(=O)[C@H](N)Cc1ccccc1)C(=O)N[C@H](CCCCN)C(=O)NCC1CCOCC1 [Compound (73)]
[1]
  EC50: 0.633 nM
  Emax: 89%
[2]
  EC50: 0.0034 nM
  Emax: 99%

## CC(C)C[C@@H](NC(=O)[C@@H](Cc1ccccc1)NC(=O)[C@H](N)Cc1ccccc1)C(=O)N[C@H](CCCCN)C(=O)NCc1ccc2[nH]c(=O)[nH]c2c1 [Compound (74), D-Phe-D-Phe-D-Leu-D-Lys-[5-(aminomethyl)-1H-benzo[d]imidazol-2(3H)-one amide]]
[1]
  EC50: 0.072 nM
  Emax: 87%
[2]
  EC50: 0.0063 nM
  Emax: 99%

## CC(C)C[C@@H](N)C(=O)N[C@H](CCCN)C(=O)N[C@@H](CCCCNC(=O)[C@@H](CCCN)NC(=O)[C@@H](CC(C)C)NC(=O)[C@@H](Cc1ccccc1)NC(=O)[C@H](N)Cc1ccccc1)C(=O)O [Compound (76), D-Phe-D-Phe-D-Leu-D-Orn-[eLys(D-Orn-D-Leu-H)]-OH]
[1]
  EC50: 1.07 nM
  Emax: 96%
[2]
  EC50: 0.26 nM
  Emax: 83%

## CC(C)C[C@@H](NC(=O)[C@H](N)Cc1ccccc1)C(=O)N[C@H](CCCN)C(=O)N[C@@H](CCCCNC(=O)[C@@H](CCCN)NC(=O)[C@@H](CC(C)C)NC(=O)[C@@H](Cc1ccccc1)NC(=O)[C@H](N)Cc1ccccc1)C(=O)O [Compound (78)]
[1]
  EC50: 0.24 nM
[2]
  Emax: 95%

## CC(C)C[C@@H](NC(=O)[C@@H](Cc1ccccc1)NC(=O)[C@H](N)Cc1ccccc1)C(=O)N[C@H](CCCN)C(=O)NCCCC[C@H](NC(=O)[C@H](N)CCCN)C(=O)O [Compound (79)]
[1]
  EC50: 0.08 nM
  Emax: 101%
[2]
  EC50: 0.13 nM

## CC(C)C[C@@H](NC(=O)[C@@H](Cc1ccccc1)NC(=O)[C@H](N)Cc1ccccc1)C(=O)N[C@H](CCCN)C(=O)NCCCC[C@H](NC(=O)[C@@H](CCCN)NC(=O)[C@@H](CC(C)C)NC(=O)[C@@H](Cc1ccccc1)NC(=O)[C@H](N)Cc1ccccc1)C(N)=O [Compound (80)] (H-[dF][dF][dL][dOrn]K([dOrn-dL-dF-dF])-NH2)
[1]
  EC50: 1.3 nM
  Emax: 91%
[2]
  EC50: 0.25 nM

## CC(C)C[C@@H](NC(=O)[C@@H](Cc1ccccc1)NC(=O)[C@H](N)Cc1ccccc1)C(=O)N[C@H](CCCN)C(=O)NCCCC[C@H](NC(=O)[C@H](N)CCCN)C(=O)N1CCNCC1 [Compound (81)]
[1]
  EC50: 0.05 nM
  Emax: 96%
[2]
  EC50: 0.28 nM
  Emax: 96%

## CC(C)C[C@@H](NC(=O)[C@@H](Cc1ccccc1)NC(=O)[C@H](N)Cc1ccccc1)C(=O)N[C@H](CCCN)C(=O)N1CCOC(C(=O)O)C1 (stereo partly drawn) [Compound (90), D-Phe-D-Phe-D-Leu-D-Orn-[R/S-2-carboxymorpholine]-OH]
[1]
  EC50: 0.178 nM
  Emax: 100%
[2]
  EC50: 0.16 nM
  Emax: 100%

Source: patent publication US7713937B2, “Synthetic peptide amides and dimeric forms thereof” (Cara Therapeutics, Inc., priority 2006, dated 2010)
